According to patent publication US20050107289A1, “Anti-microbial peptides and compositions” (priority 2001, published 2005):
Where two headings read alike, the source gives them in different places. Non-standard residues stand in square brackets, D forms with d. Residues, ends and D or L forms follow the SMILES beside them. NMeL = CN[C@@H](CC(C)C)C(=O)O

Tests used:
[1] = test system: S. aureus (MRSA) ATCC 33591; type: cell-based, Staphylococcus aureus; details: for MRSA MIC / S. aureus (MRSA) MIC: ATCC 33591; for MRSA (in vitro activity): Table 9
Procedure, shortened: (§1)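 Overnight bacterial cultures, diluted 4000 times to roughly 2.5×10^5 cfu/ml, are added to 2-fold peptide dilution series. Peptide series span approximately 400-2 μg/ml as prepared in DMSO/aqueous sucrose, before mixing with inoculum. Testing follows NCCLS M7-A4 broth dilution, chiefly the microdilution format.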

[2] = test system: vancomycin-resistant Enterococus faecalis (VRE)(ATCC 51575); type: cell-based, Enterococcus faecalis; parameters: key to VRE (in vitro activity): peptide concentration in μg/ml (broth dilution assay); details: for VRE MIC: ATCC 51575; for VRE (in vitro activity): Table 9
Procedure, shortened: as §1

[3] = test system: Streptococcus pneumoniae (ATCC 6301); type: cell-based
Experimental: (§2) The antimicrobial activity of the peptides was determined using a broth dilution assay essentially as descried in the guidelines of the National Committee for […] (NCCLS) [National Committee for Clinical Laboratory Standards. Methods for dilution antimicrobial susceptibility tests for bacteria that grow aerobically. Fourth edition. Approved Standard (1997). Document M7-A4. […] The microdilution method has the advantages of requiring less amount of peptide for each assay and the possibility of multiple simultaneous inoculations and was used in most studies. Several of the strains of bacteria tested are further described in Table 3.
(§3) Preparation of peptide solutions. Stock peptide solutions were prepared in 5% DMSO in aq. sucrose (9%). Determination of peptide concentrations was done by quantitative HPLC analysis using known concentrations of internal standards and/or by measuring UV absorption of tryptophane-containing peptide solutions in H2O (λ=280 εTrp: 5690). Serial 2-fold dilutions were made in the above DMSO/aq. sucrose (9%) mixture with concentrations ranging approximately 400-2 μg/ml and aliquots were dispensed in test tubes (100 μl) for the macrodilution test or in microtiter plates (20 μl) for the microdilution assays.
(§4) Inoculum preparation. Overnight cultures of different microorganisms grown in suitable media were diluted 4000 times to an approximate inoculum size of 2.5×10^5 cfu/ml.
(§5) Macrodilution method. Macrodilution methods were performed using procedures similar to those described in the National Committee for Clinical Laboratory Standards. Methods for dilution antimicrobial susceptibility tests for bacteria that grow aerobically. Fourth edition. Approved Standard (1997). Document M7-A4. (NCCLS,Villanova, Pa., 1997). Two ml aliquots of the above inoculum were dispensed to test tubes containing different peptide solutions.
(§6) Microdilution method. Microdilution methods were performed using procedures similar to those described in the National Committee for Clinical Laboratory Standards. Methods for dilution antimicrobial susceptibility tests for bacteria that grow aerobically. Fourth edition. Approved Standard (1997). Document M7-A4.

[4] = test system: Bacillus cereus ATCC 11778; type: cell-based
Experimental: as §2, §3, §4, §5, §6

murine red blood cells = test: Red blood cell hemolysis; type: cell-based, mouse; details: for Hemolysis HD50: red cells of murine
Procedure, shortened: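 Washed murine erythrocytes at 5% in saline with 10% FBS were exposed to serial peptide dilutions for 30 min at 37° C. Supernatant absorbance at 560 nm was read, with saline as 0% and 1% Triton X-100 as 100% hemolysis.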

E. coli JM109(DE3) = type: cell-based, Escherichia coli; details: JM109
Experimental: as §2, §3, §4, §5, §6

[5] = media a: anti-microbial media-3 (AM-3)

Row | MRSA MIC [1] [µg/mL] | S. aureus (MRSA) MIC [1] [µg/mL] | VRE MIC [2] [µg/mL] | S. pneum. MIC [3] [µg/mL] | B. cerius MIC [4] [µg/mL] | E. coli MIC (E. coli JM109(DE3)) [µg/mL] | SMILES | Hemolysis HD50 (murine red blood cells) [µg/mL] | MRSA (in vitro activity) [1, 5] | VRE (in vitro activity) ([2]; media a: AM-3) | RBC Hemolysis (HD50) (murine red blood cells) | MRSA (in vitro activity) ([1]; media b: cation adjusted Meuller Hinton broth (MHBII)) | VRE (in vitro activity) ([2]; media c: Brain Heart Infusion (BHI))
1 | 100 | 80 | 100 | 80 | 75 | 20 | CC(=O)N[C@H](CCCCN)C(=O)N[C@@H](CCCCN)C(=O)N[C@H](CCCCN)C(=O)N[C@@H](Cc1c[nH]c2ccccc12)C(=O)N[C@H](CC(C)C)C(=O)N[C@@H](Cc1c[nH]c2ccccc12)C(=O)N[C@H](CC(C)C)C(=O)N[C@H](Cc1c[nH]c2ccccc12)C(N)=O [SEQ ID NO:25, Ac-KKKWLWLW-CONH2] (Ac-[dK]K[dK]W[dL]W[dL][dW]-NH2) | 100 | – | – | – | – | –
2 | 15 | – | 100 | 20 | 20 | 7 | CC(=O)N[C@H](CC(C)C)C(=O)N[C@@H](Cc1c[nH]c2ccccc12)C(=O)N[C@H](CCCNC(=N)N)C(=O)N[C@@H](CCCNC(=N)N)C(=O)N[C@H](CCCCN)C(=O)N[C@@H](Cc1c[nH]c2ccccc12)C(=O)N[C@H](CC(C)C)C(=O)N[C@@H](Cc1c[nH]c2ccccc12)C(N)=O [SEQ ID NO:138, Ac-LWRRKWLW-NH2] (Ac-[dL]W[dR]R[dK]W[dL]W-NH2) | 100 | – | – | – | – | –
3 | 20 | – | 100 | 40 | 19 | 4 | CC(C)C[C@@H](NC(=O)[C@H](Cc1c[nH]c2ccccc12)NC(=O)[C@@H](CC(C)C)NC(=O)[C@H](Cc1c[nH]c2ccccc12)NC(=O)[C@@H](CCCCN)NC(=O)[C@H](CCCNC(=N)N)NC(=O)[C@H](N)CCCNC(=N)N)C(=O)N[C@@H](Cc1c[nH]c2ccccc12)C(N)=O [SEQ ID NO:135, H-RRKWLWLW-NH2] (H-[dR]R[dK]W[dL]W[dL]W-NH2) | 100 | – | – | – | – | –
4 | 5 | – | 40 | 20 | 9 | 4 | CC(C)C[C@@H](N)C(=O)N[C@@H](Cc1c[nH]c2ccccc12)C(=O)N[C@H](CCCNC(=N)N)C(=O)N[C@@H](CCCNC(=N)N)C(=O)N[C@H](CCCCN)C(=O)N[C@@H](Cc1c[nH]c2ccccc12)C(=O)N[C@H](CC(C)C)C(=O)N[C@@H](Cc1c[nH]c2ccccc12)C(N)=O [SEQ ID NO:137, H-LWRRKWLW-NH2] (H-[dL]W[dR]R[dK]W[dL]W-NH2) | 100 | – | – | – | – | –

Further lines, the molecule ahead of its results:

Row | SMILES | MRSA MIC [1] [µg/mL] | S. aureus (MRSA) MIC [1] [µg/mL] | VRE MIC [2] [µg/mL] | S. pneum. MIC [3] [µg/mL] | B. cerius MIC [4] [µg/mL] | E. coli MIC (E. coli JM109(DE3)) [µg/mL] | Hemolysis HD50 (murine red blood cells) [µg/mL] | MRSA (in vitro activity) [1, 5] | VRE (in vitro activity) ([2]; media a: AM-3) | RBC Hemolysis (HD50) (murine red blood cells) | MRSA (in vitro activity) ([1]; media b: cation adjusted Meuller Hinton broth (MHBII)) | VRE (in vitro activity) ([2]; media c: Brain Heart Infusion (BHI))
5 | CC(C)C[C@@H](NC(=O)[C@H](Cc1c[nH]c2ccccc12)NC(=O)[C@@H](CC(C)C)NC(=O)[C@H](Cc1c[nH]c2ccccc12)NC(=O)[C@@H](CCCCN)NC(=O)[C@H](CCCCN)NC(=O)[C@H](N)CCCCN)C(=O)N[C@@H](Cc1c[nH]c2ccccc12)C(N)=O [SEQ ID NO:134, H-KKKWLWLW-NH2] (H-[dK]K[dK]W[dL]W[dL]W-NH2) | 30 | – | 100 | 80 | 19 | 3 | 100 | – | – | – | – | –
6 | CC(C)C[C@H]1NC(=O)[C@H](Cc2c[nH]c3ccccc23)NC(=O)[C@@H](Cc2c[nH]cn2)NC(=O)[C@H](CCCCN)NC(=O)[C@@H](Cc2c[nH]cn2)NC(=O)[C@H](Cc2c[nH]c3ccccc23)NC(=O)[C@@H](CC(C)C)NC(=O)[C@H](Cc2c[nH]c3ccccc23)NC1=O [SEQ ID NO:21, cyclo-(D-His-Lys-D-His-Trp-D-Leu-Trp-D-Leu-Trp)] (cyclo(K[dH]W[dL]W[dL]W[dH])) | 12 | 12 | 16 | 19 | 4 | 15 | – | 12 | 16 | 25 | – | –
7 | CC(C)C[C@H]1NC(=O)[C@H](Cc2c[nH]c3ccccc23)NC(=O)[C@@H](CCCCN)NC(=O)[C@H](Cc2c[nH]cn2)NC(=O)[C@@H](CCCCN)NC(=O)[C@H](Cc2c[nH]c3ccccc23)NC(=O)[C@@H](CC(C)C)NC(=O)[C@H](Cc2c[nH]c3ccccc23)NC1=O [SEQ ID NO:22, KHKWLWLW] (cyclo([dK]H[dK]W[dL]W[dL]W)) | 10 | 10 | 10 | 8 | 8 | 80 | – | 10 | 10 | 30 | – | –
8 | CC(C)C[C@H]1NC(=O)[C@H](Cc2c[nH]c3ccccc23)NC(=O)[C@@H](Cc2c[nH]cn2)NC(=O)[C@H](CCCCN)NC(=O)[C@@H](CCC(=O)O)NC(=O)[C@H](Cc2c[nH]c3ccccc23)NC(=O)[C@@H](CC(C)C)NC(=O)[C@H](Cc2c[nH]c3ccccc23)NC1=O [SEQ ID NO:16, cyclo-(D-Glu-Lys-D-His-Trp-D-Leu-Trp-D-Leu-Trp)] (cyclo(K[dH]W[dL]W[dL]W[dE])) | 100 | 100 | 100 | 50 | 85 | 100 | – | 100 | 100 | >100 | – | –
9 | CC(C)C[C@H]1NC(=O)[C@H](Cc2c[nH]c3ccccc23)NC(=O)[C@@H](CCCCN)NC(=O)[C@H](CCCNC(=N)N)NC(=O)[C@@H](CCCNC(=N)N)NC(=O)[C@H](Cc2c[nH]c3ccccc23)NC(=O)[C@@H](CC(C)C)NC(=O)[C@H](CO)NC1=O [SEQ ID NO:112, [RRKWLSLW]] (cyclo([dR]R[dK]W[dL]S[dL]W)) | 12 | – | 50 | 12 | 13 | 12 | 100 | 12 | 50 | 100 | – | –
10 | CC(C)C[C@@H]1NC(=O)[C@@H](Cc2c[nH]c3ccccc23)NC(=O)[C@H](CCCCN)NC(=O)[C@@H](CCCNC(=N)N)NC(=O)[C@H](CCCCN)NC(=O)[C@@H](Cc2c[nH]c3ccccc23)NC(=O)[C@H](CC(C)C)NC(=O)[C@@H](Cc2c[nH]cn2)NC1=O [SEQ ID NO:101, [KRKWLHLW]] (cyclo(K[dR]K[dW]L[dH]L[dW])) | 40 | – | 40 | 80 | 80 | 12 | 100 | 40 | 40 | 100 | – | –
11 | CC(C)C[C@H]1NC(=O)[C@H](Cc2c[nH]c3ccccc23)NC(=O)[C@@H](CCCCN)NC(=O)[C@H](CCCNC(=N)N)NC(=O)[C@@H](CCCNC(=N)N)NC(=O)[C@H](Cc2c[nH]c3ccccc23)NC(=O)[C@@H](CC(C)C)NC(=O)[C@H](Cc2c[nH]cn2)NC1=O [SEQ ID NO:110, [RRKWLHLW]] (cyclo([dR]R[dK]W[dL]H[dL]W)) | 25 | – | 40 | 20 | 20 | 15 | 100 | 25 | 40 | 100 | – | –
12 | CC(C)C[C@H]1NC(=O)[C@H](CO)NC(=O)[C@@H](CCCCN)NC(=O)[C@H](Cc2c[nH]c3ccccc23)NC(=O)[C@@H](CC(C)C)NC(=O)[C@H](Cc2c[nH]c3ccccc23)NC1=O [SEQ ID NO:28, cyclo-(D-Lys-Ser-D-Leu-Trp-D-Leu-Trp)] (cyclo(S[dL]W[dL]W[dK])) | 100 | 75 | 100 | 20 | 15 | 100 | – | – | – | 90 | 100 | 100
13 | CC(C)C[C@H]1C(=O)N[C@H](Cc2c[nH]c3ccccc23)C(=O)N(C)[C@@H](CC(C)C)C(=O)N[C@H](Cc2c[nH]c3ccccc23)C(=O)N[C@@H](CCCNC(=N)N)C(=O)N[C@H](CCCNC(=N)N)C(=O)N[C@@H](CCCCN)C(=O)N[C@H](Cc2c[nH]c3ccccc23)C(=O)N1C [SEQ ID NO:139, c[RRKW^MeLW^MeLW]] (cyclo(R[dR]K[dW][NMeL][dW][NMeL][dW])) | 5 | – | 30 | 10 | 5 | 5 | 100 | – | – | – | – | –
